Laboratory results: article PMC11251039, “Harnessing cholesterol uptake of malaria parasites for therapeutic applications” (EMBO Molecular Medicine, 2024)
Values joined by “and” are separate entries in the source; they are usually repeats but may differ in a detail not shown here. Equal values may be shown once. Read-outs that look alike come from different tables or passages of the source.

Experiments:
[1] = system: asexual P. falciparum 3D7 wild-type parasites; test: P. falciparum asexual growth inhibition assay (SYBR Safe DNA replication); assay type: cell-based, Plasmodium falciparum; design: Figure 5B dose-response source data (growth, replicate values): unit not given here; settings: for Figure 5B dose-response source data (growth, replicate values): individual replicates; for IC50: 72 h, read-out: IC50, P. falciparum asexual growth inhibition
Procedure: P. falciparum asexual parasite assays commenced with ring-stage parasites at 1% parasitaemia and 1% haematocrit. 200 nM chloroquine (Sigma C6628) or artesunate (Sigma A3731) was used as a no-growth control. DNA replication (indicating growth) was measured at the specified time using SYBR Safe DNA Gel Stain (Invitrogen 33102) and a fluorescence microplate reader (Smilkstein et al, [2004]; Spry et al, [2013]). […]
Growth and Viability Inhibition Assays:
Plasmodium falciparum Growth Inhibition Assays:
P. falciparum parasites were maintained under routine culture conditions in red blood cells and RPMI 1640-Hepes with Glutamax, supplemented with 10 mM D-glucose, 480 μM hypoxanthine, 20 μg/mL gentamicin, 0.375% (w/v) AlbuMAXTM II (Thermo Fisher 11021029), and 2.5% v/v heat-inactivated human serum (17). Cultures were maintained at 37 °C […]
wildtype parasites except for the ring stage survival assay, as specified. Cultures were synchronised with 5% w/v D-sorbitol (18).
Growth inhibition was investigated according to methods described by Smilkstein et al. (19) with modifications by Spry et al. (20). Compounds or solvent controls (DMSO, ethanol, or ethyl acetate) were serially diluted 2-fold across flat-bottom 96-well plates. Culture media without compound was used as a negative control. 200 nM chloroquine (Sigma C6628) or artesunate (Sigma A3731) was used as a positive control to determine background fluorescence. The parasitaemia of a culture containing predominantly ring stage parasites was counted by Giemsa smear. The parasitaemia was adjusted to 1% by addition of fresh uRBCs and added to the plate at a final haematocrit of 1%, with 200 µL per well. The plates were incubated at 37 °C under humid microaerophilic conditions. After 24, 48, or 72 hours, the plates were transferred to a -18 °C freezer to stop the assay and lyse cells. Plates were thawed and lysate was mixed 1:1 with SYBR Safe DNA Gel Stain (Invitrogen 33102) (final concentration 1/10,000) diluted in lysis buffer (20 mM TRIS, 5 mM EDTA, 0.008% w/v Saponin, 0.08% w/v Triton-X 100, pH 7.5). Fluorescence was detected at 490 nm excitation/ 520 nm emission on a FLUOstar Optima fluorescence plate reader (BMG Labtech).

[2] = system: human embryonic kidney cells (HEK293); test: Human embryonic kidney cell viability assay (MTT); assay type: cell-based; settings: for Dose-response data points (Figure 5C): replicate data points
Procedure: HEK293 cell viability assays commenced with 5000 cells per well. 10 µg/mL cycloheximide was used as a no-growth control. Metabolic capacity (indicating viability) was measured in an absorbance microplate reader after incubation with 0.45 mg/mL methylthiazolyldiphenyl-tetrazolium bromide (MTT; Sigma M2128) for 2 h followed by crystal solubilisation in SDS. […]
Human Embryonic Kidney Cell Viability Assays:
Human Embryonic Kidney Cell (HEK293) culture:
The HEK293 cell line was maintained under routine culture conditions in DMEM containing 3.7 g/L NaHCO3 supplemented with 10% FBS, 200 μM glutamine, 100 units/mL penicillin, and 100 μg/mL streptomycin at 37 °C in a humidified 5% CO2 incubator.
Cells were detached from a flask using 0.25% Trypsin with 0.2 g/L EDTA (Sigma T4049) and washed with culture media containing no phenol red. Cells were incubated with a serial dilution of each compound, or media/DMSO alone. The protein synthesis inhibitor cycloheximide (Sigma 01810) at 10 µg/mL was used as a positive control to determine background absorbance. 5,000 cells were seeded in each well. After 96 hours, 0.45 mg/mL methylthiazolyldiphenyl-tetrazolium bromide (MTT; Sigma M2128) was added and incubated for a further two hours, before mixing 1.1:1 with 10% w/v sodium dodecyl sulfate (SDS) to solubilise crystals and freezing the plate at -18 °C to stop the assay. […]

Structure (SMILES): CC(C)(C)OOCCO[C@H]1CC[C@H]2[C@@H]3CC=C4C[C@@H](O)CC[C@]4(C)[C@H]3CC[C@]12C [BC86D]
- Figure 5B dose-response source data (growth, replicate values) ([1]; Concentration 0.019532 uM): 105.3 and 96.53 and 86.36 and 94.74 and 88.38 and 91.4
- Figure 5B dose-response source data (growth, replicate values) ([1]; Concentration 0.039063 uM): 101.2 and 93.9 and 88.17 and 67.71 and 70.53 and 73.82 and 95.83 and 90.15 and 93.44
- Figure 5B dose-response source data (growth, replicate values) ([1]; Concentration 0.078125 uM): 97.22 and 94.27 and 90.34 and 67.69 and 67.82 and 69.83 and 95.38 and 88.24 and 94.29
- Figure 5B dose-response source data (growth, replicate values) ([1]; Concentration 0.15625 uM): 96.36 and 93.34 and 87.86 and 61.44 and 62.01 and 63.2 and 95.83 and 94.74 and 95.36
- Figure 5B dose-response source data (growth, replicate values) ([1]; Concentration 0.3125 uM): 73 and 78.58 and 67.15 and 39.54 and 44.2 and 46.55 and 91.73 and 92.12 and 93.7
- Figure 5B dose-response source data (growth, replicate values) ([1]; Concentration 0.625 uM): 35.28 and 38.38 and 34.74 and 19.93 and 23.01 and 29.36 and 61.25 and 65.6 and 67.6
- Figure 5B dose-response source data (growth, replicate values) ([1]; Concentration 1.25 uM): 21.76 and 22.71 and 19.11 and 8.627 and 13.04 and 18.09 and 18.17 and 19.23 and 20.29
- Figure 5B dose-response source data (growth, replicate values) ([1]; Concentration 2.5 uM): 14.75 and 15.93 and 13.24 and 1.608 and 6.601 and 8.38 and 7.495 and 10.61 and 8.324
- Figure 5B dose-response source data (growth, replicate values) ([1]; Concentration 5 uM): 10.45 and 16.02 and 6.128 and -6.852 and -3.181 and -0.1793 and 5.173 and 6.43 and 3.972
- Figure 5B dose-response source data (growth, replicate values) ([1]; Concentration 10 uM): 4.733 and -2.356 and 1.324 and -0.2487 and 0.35 and -1.359 and 1.305 and 0.4257 and 0.3494
- Figure 5B dose-response source data (growth, replicate values) ([1]; Concentration 12.5 uM): 2.181 and -0.01995 and -1.157
- Figure 5B dose-response source data (growth, replicate values) ([1]; Concentration 25 uM): 4.45 and 0.3217 and -1.979
- Dose-response data points (Figure 5C) ([2]; 3.125000 μM): 115.5 and 95.86 and 88.3 and 98.59 and 112 and 99.93 and 104.6 and 105.3 and 96.8 and 121.6 and 126.6 and 132.2
- Dose-response data points (Figure 5C) ([2]; 6.250000 μM): 96.33 and 95.87 and 97.03 and 100.5 and 103.4 and 96.23 and 94.82 and 98.4 and 99.62 and 111.9 and 133.1 and 110.9
- Dose-response data points (Figure 5C) ([2]; 12.500000 μM): 82.46 and 90.77 and 77.92 and 80.03 and 95.9 and 97.58 and 94.64 and 94.52 and 89.57 and 87.62 and 85.62 and 86.13
- Dose-response data points (Figure 5C) ([2]; 25.000000 μM): 69.58 and 78.66 and 69.32 and 83.79 and 87.18 and 91.53 and 75.15 and 72.67 and 65.58 and 76.71 and 79.77 and 75.18
- Dose-response data points (Figure 5C) ([2]; 50.000000 μM): 3.07 and 5.347 and 9.422 and 2.15 and 5.359 and 78.86 and -3.535 and -3.352 and -3.7 and -3.023 and -3.058 and -2.513
- Dose-response data points (Figure 5C) ([2]; 100.000000 μM): -1.036 and -1.804 and -2.143 and -2.292 and -2.356 and -1.995 and -3.811 and -3.706 and -3.888 and -2.988 and -3.04 and -3.163

Structure (SMILES): CC(C)(C)OOCCO[C@H]1CC[C@H]2[C@@H]3CC=C4C[C@@H](O)CC[C@]4(C)[C@H]3CC[C@]12C [C-17-perox]
- IC50 [1]: 500 nM
- IC50 ([1]; Plasmodium falciparum, 3D7, 72 h): 480 nM
- Fold difference in IC50 HEK293 compared to P. falciparum ([2]; 96 h HEK293 vs 72 h P. falciparum): ~ 60 fold
- IC50 ([2]; Homo sapiens, 96 h, HEK293, read-out: IC50, human embryonic kidney cell inhibition (viability)): 31.3 µM
